For this assay, the system named is chick chorioallantonic membrane. Put plainly: Inhibitory effect on angiogenesis in the chick chorioallantonic membrane. As to conditions: pellet on embryo chorioallantonic membrane, cultured two days, rate = positive eggs/tested eggs x100. The assay is classed as in vivo, chick (white leghorn). As to the method: It was reported that effects of drugs on angiogenesis were evaluated using fertilized egg embryo chorioallantonic membrane as an in vivo angiogenesis evaluation model (Biochem. Biophys. Res. Commun., 174, 1070-1076 (1991)). Accordingly, effects of a cysteine derivative on the angiogenesis evaluation model were studied according to the assay described in the above-mentioned literature.
1. Methyl cellulose (0.1 g) is dissolved in sterile purified water (10 ml) to prepare a 1% solution of methyl cellulose.
2. A test compound is dissolved in ethanol/sterile purified water (1/1) to prepare a 24 μmol/ml solution.
3. The 24 μmol/ml solution of the test compound is diluted with ethanol/sterile purified water (1/1) to prepare 12 μmol/ml and 6 μmol/ml solutions of the test compound.
4. The solution (0.20 ml) of the test compound having each concentration is mixed with the 1% solution (0.20 ml) of methyl cellulose to prepare a mixed solution of the test compound.
5. […]
Hatched eggs (white leghorn) of three days old after fertilization were put up by threes on a culture plate having six wells with their air phases upward and incubated in a CO2 incubator for 20 minutes (temperature: 37° C., humidity: 95%, CO2 concentration: 5%). […] Hatched eggs in which angiogenesis was not observed were defined as positive, and inhibition rates of angiogenesis were calculated by the following equation.

Structures can show the parent of a compound that is named as a salt.

As for `CC(C)(CS)C(=O)NC(CS)C(=O)NCCCCCCN` (stereo in doubt) [N^1-(6-aminohexyl)-N^2-(2,2-dimethyl-3-mercaptopropionyl)-L-cysteinamide hydrochloride], the “Inhibition rate of angiogenesis (%)” value (dose 0.06 μmol/egg) turned out to be 80% and the “Inhibition rate of angiogenesis (%)” value (dose 0.12 μmol/egg) is 93%.
